Measured values taken from PubChem BioAssay AID330 (DTP/NCI, 2004).
Values joined by “and” are separate entries in the source; they are usually repeats but may differ in a detail not shown here. Equal entries are not always repeated. Inconclusive results and toxic doses are left out.

Tested on: P388 leukemia ip, CD2F1 mice, survival T/C
Test: NCI In Vivo Anticancer Drug Screen. Data for tumor model P388 Leukemia (intraperitoneal) in CD2F1 (CDF1) mice
Conditions: endpoint: median survival time, higher = longer survival
How it was run: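 Mice carrying the transplanted tumor received test compound or vehicle. Survival was recorded in each group, and the value is the treated-group measurement divided by that of the vehicle-treated control group.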

COc1cc2c[n+](C)c3c4cc5c(cc4ccc3c2cc1OC)OCO5
T/C (dose: 0.5 mg/kg/injection, schedule: Q01DX005 (ip), vehicle: saline): 106 % of control | T/C (dose: 1.0 mg/kg/injection, schedule: Q01DX005 (ip), vehicle: saline): 118 % of control | T/C (dose: 1.25 mg/kg/injection, schedule: Q01DX009 (ip), vehicle: DMSO): 124 % of control | T/C (dose: 2.0 mg/kg/injection, schedule: Q01DX005 (ip), vehicle: saline): 115 % of control | T/C (dose: 2.0 mg/kg/injection, schedule: Q03HX008 (ip), vehicle: water): 109 % of control | T/C (dose: 2.0 mg/kg/injection, schedule: Q03HX016 (ip), vehicle: water): 121 % of control | T/C (dose: 2.0 mg/kg/injection, schedule: Q03HX024 (ip), vehicle: saline with Tween-80): 150 % of control | T/C (dose: 4.0 mg/kg/injection, schedule: Q01DX009 (ip), vehicle: saline): 152 % of control | T/C (dose: 4.0 mg/kg/injection, schedule: Q01DX009 (sc), vehicle: water): 97 % of control | T/C (dose: 4.0 mg/kg/injection, schedule: Q03HX008 (ip), vehicle: water): 114 % of control | T/C (dose: 4.0 mg/kg/injection, schedule: Q03HX016 (ip), vehicle: water): 119 % of control | T/C (dose: 5.0 mg/kg/injection, schedule: Q01DX009 (ip), vehicle: DMSO): 153 % of control | T/C (dose: 8.0 mg/kg/injection, schedule: Q01DX009 (ip), vehicle: saline with Tween-80): 166 % of control | T/C (dose: 8.0 mg/kg/injection, schedule: Q01DX009 (ip), vehicle: saline): 152 % of control | T/C (dose: 8.0 mg/kg/injection, schedule: Q01DX009 (oral), vehicle: water): 102 % of control | T/C (dose: 8.0 mg/kg/injection, schedule: Q01DX009 (sc), vehicle: saline with Tween-80): 96 % of control | T/C (dose: 8.0 mg/kg/injection, schedule: Q01DX009 (sc), vehicle: water): 97 % of control | T/C (dose: 8.0 mg/kg/injection, schedule: Q03HX008 (ip), vehicle: water): 87 % of control | T/C (dose: 8.0 mg/kg/injection, schedule: Q03HX016 (ip), vehicle: saline with Tween-80): 153 % of control | T/C (dose: 8.0 mg/kg/injection, schedule: Q03HX016 (ip), vehicle: water): 92 % of control | T/C (dose: 8.0 mg/kg/injection, schedule: Q03HX024 (ip), vehicle: saline with Tween-80): 165 % of control | T/C (dose: 8.0 mg/kg/injection, schedule: Q04DX003 (ip), vehicle: water): 113 % of control | T/C (dose: 10.0 mg/kg/injection, schedule: Q01DX009 (ip), vehicle: DMSO): 153 % of control and 155 % of control | T/C (dose: 16.0 mg/kg/injection, schedule: Q01DX001 (ip), vehicle: water): 106 % of control | T/C (dose: 16.0 mg/kg/injection, schedule: Q01DX001 (oral), vehicle: water): 103 % of control | T/C (dose: 16.0 mg/kg/injection, schedule: Q01DX001 (sc), vehicle: water): 98 % of control | T/C (dose: 16.0 mg/kg/injection, schedule: Q01DX009 (ip), vehicle: saline with Tween-80): 157 % of control | T/C (dose: 16.0 mg/kg/injection, schedule: Q01DX009 (ip), vehicle: saline): 171 % of control | T/C (dose: 16.0 mg/kg/injection, schedule: Q01DX009 (oral), vehicle: water): 94 % of control | T/C (dose: 16.0 mg/kg/injection, schedule: Q01DX009 (sc), vehicle: saline with Tween-80): 97 % of control | T/C (dose: 16.0 mg/kg/injection, schedule: Q03HX008 (ip), vehicle: saline with Tween-80): 167 % of control | T/C (dose: 16.0 mg/kg/injection, schedule: Q04DX003 (ip), vehicle: water): 119 % of control | T/C (dose: 16.0 mg/kg/injection, schedule: Q08DX002 (ip), vehicle: water): 112 % of control | T/C (dose: 20.0 mg/kg/injection, schedule: Q01DX009 (ip), vehicle: DMSO): 155 % of control and 163 % of control and 190 % of control | T/C (dose: 20.0 mg/kg/injection, schedule: Q01DX009 (ip), vehicle: saline): 191 % of control | T/C (dose: 25.0 mg/kg/injection, schedule: Q01DX009 (ip), vehicle: saline with Tween-80): 114 % of control | T/C (dose: 25.0 mg/kg/injection, schedule: Q01DX009 (ip), vehicle: water): 100 % of control and 87 % of control | T/C (dose: 32.0 mg/kg/injection, schedule: Q01DX001 (ip), vehicle: water): 102 % of control | T/C (dose: 32.0 mg/kg/injection, schedule: Q01DX001 (oral), vehicle: water): 103 % of control | T/C (dose: 32.0 mg/kg/injection, schedule: Q01DX001 (sc), vehicle: saline with Tween-80): 100 % of control | T/C (dose: 32.0 mg/kg/injection, schedule: Q01DX001 (sc), vehicle: water): 101 % of control | T/C (dose: 32.0 mg/kg/injection, schedule: Q01DX005 (ip), vehicle: saline): 168 % of control | T/C (dose: 32.0 mg/kg/injection, schedule: Q01DX009 (ip), vehicle: saline with Tween-80): 100 % of control | T/C (dose: 32.0 mg/kg/injection, schedule: Q01DX009 (ip), vehicle: water): 185 % of control | T/C (dose: 32.0 mg/kg/injection, schedule: Q01DX009 (oral), vehicle: saline with Tween-80): 107 % of control | T/C (dose: 32.0 mg/kg/injection, schedule: Q01DX009 (oral), vehicle: water): 93 % of control | T/C (dose: 32.0 mg/kg/injection, schedule: Q01DX009 (sc), vehicle: saline with Tween-80): 92 % of control | T/C (dose: 32.0 mg/kg/injection, schedule: Q03HX008 (ip), vehicle: saline with Tween-80): 161 % of control | T/C (dose: 32.0 mg/kg/injection, schedule: Q03HX016 (ip), vehicle: saline with Tween-80): 100 % of control | T/C (dose: 32.0 mg/kg/injection, schedule: Q04DX003 (ip), vehicle: other): 154 % of control | T/C (dose: 32.0 mg/kg/injection, schedule: Q04DX003 (ip), vehicle: water): 119 % of control | T/C (dose: 32.0 mg/kg/injection, schedule: Q08DX002 (ip), vehicle: water): 113 % of control | T/C (dose: 40.0 mg/kg/injection, schedule: Q01DX009 (ip), vehicle: saline): 105 % of control and 96 % of control | T/C (dose: 64.0 mg/kg/injection, schedule: Q01DX001 (ip), vehicle: water): 117 % of control | T/C (dose: 64.0 mg/kg/injection, schedule: Q01DX001 (oral), vehicle: water): 102 % of control | T/C (dose: 64.0 mg/kg/injection, schedule: Q01DX001 (sc), vehicle: saline with Tween-80): 98 % of control | T/C (dose: 64.0 mg/kg/injection, schedule: Q01DX001 (sc), vehicle: water): 95 % of control | T/C (dose: 64.0 mg/kg/injection, schedule: Q01DX009 (oral), vehicle: saline with Tween-80): 100 % of control | T/C (dose: 64.0 mg/kg/injection, schedule: Q01DX009 (oral), vehicle: water): 101 % of control | T/C (dose: 64.0 mg/kg/injection, schedule: Q01DX009 (sc), vehicle: saline with Tween-80): 87 % of control | T/C (dose: 64.0 mg/kg/injection, schedule: Q04DX003 (ip), vehicle: other): 150 % of control and 181 % of control | T/C (dose: 64.0 mg/kg/injection, schedule: Q04DX003 (ip), vehicle: saline with Tween-80): 151 % of control | T/C (dose: 64.0 mg/kg/injection, schedule: Q08DX002 (ip), vehicle: water): 115 % of control | T/C (dose: 100.0 mg/kg/injection, schedule: Q04DX002 (ip), vehicle: Klucel (hydroxypropylcellulose) (HPC)): 154 % of control | T/C (dose: 120.0 mg/kg/injection, schedule: Q04DX003 (ip), vehicle: distilled water + Tween-80): 99 % of control | T/C (dose: 128.0 mg/kg/injection, schedule: Q01DX001 (oral), vehicle: water): 95 % of control | T/C (dose: 128.0 mg/kg/injection, schedule: Q01DX001 (sc), vehicle: saline with Tween-80): 97 % of control | T/C (dose: 128.0 mg/kg/injection, schedule: Q01DX009 (oral), vehicle: saline with Tween-80): 100 % of control | T/C (dose: 128.0 mg/kg/injection, schedule: Q01DX009 (oral), vehicle: water): 103 % of control | T/C (dose: 128.0 mg/kg/injection, schedule: Q01DX009 (sc), vehicle: saline with Tween-80): 88 % of control | T/C (dose: 128.0 mg/kg/injection, schedule: Q04DX003 (ip), vehicle: other): 107 % of control | T/C (dose: 128.0 mg/kg/injection, schedule: Q04DX003 (ip), vehicle: saline with Tween-80): 166 % of control | T/C (dose: 128.0 mg/kg/injection, schedule: Q08DX002 (ip), vehicle: saline with Tween-80): 155 % of control | T/C (dose: 200.0 mg/kg/injection, schedule: Q04DX002 (ip), vehicle: Klucel (hydroxypropylcellulose) (HPC)): 105 % of control and 122 % of control | T/C (dose: 256.0 mg/kg/injection, schedule: Q01DX001 (ip), vehicle: saline with Tween-80): 161 % of control | T/C (dose: 256.0 mg/kg/injection, schedule: Q01DX001 (oral), vehicle: saline with Tween-80): 104 % of control | T/C (dose: 256.0 mg/kg/injection, schedule: Q01DX001 (sc), vehicle: saline with Tween-80): 106 % of control | T/C (dose: 256.0 mg/kg/injection, schedule: Q01DX009 (oral), vehicle: saline with Tween-80): 100 % of control | T/C (dose: 256.0 mg/kg/injection, schedule: Q08DX002 (ip), vehicle: saline with Tween-80): 160 % of control | T/C (dose: 400.0 mg/kg/injection, schedule: Q04DX002 (ip), vehicle: Klucel (hydroxypropylcellulose) (HPC)): 87 % of control | T/C (dose: 512.0 mg/kg/injection, schedule: Q01DX001 (oral), vehicle: saline with Tween-80): 106 % of control | T/C (dose: 512.0 mg/kg/injection, schedule: Q01DX001 (sc), vehicle: saline with Tween-80): 97 % of control | T/C (dose: 512.0 mg/kg/injection, schedule: Q01DX009 (oral), vehicle: saline with Tween-80): 97 % of control | T/C (dose: 1024.0 mg/kg/injection, schedule: Q01DX001 (oral), vehicle: saline with Tween-80): 100 % of control | T/C (dose: 2048.0 mg/kg/injection, schedule: Q01DX001 (oral), vehicle: saline with Tween-80): 102 % of control
